In patent US12338256B2, “Aza-tetracyclic oxazepine compounds and uses thereof” (Genentech, Inc., priority 2022, dated 2025):

Assays:
[1] = system: HPAC (homozygous mutant KRAS G12D human pancreatic cell line); experiment: KRAS 3D-Cell Proliferation Assay, HPAC (Example 503); assay type: cell-based; conditions: Homo sapiens, HPAC, 168 h, HPAC 3D culture, 7 days, CellTiter-Glo 3D; read-out: Prolif HPAC 3D ATP IC50
In short: (§1)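 IC50 values derive from 4-parameter Hill fits of normalized luminescence, where DMSO sets 0% and 1 μM staurosporine 100% inhibition. 3D cultures in RPMI-1640 with 10% fetal bovine serum were exposed to compound for 7 days before CellTiter-Glo 3D lysis.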

[2] = system: PC-9 (KRAS wild type human lung adenocarcinoma cell line); experiment: KRAS 3D-Cell Proliferation Assay, PC-9 (Example 503); assay type: cell-based; conditions: 168 h, PC-9 3D culture, 7 days, CellTiter-Glo 3D, read-out: Prolif PC9 3D ATP IC50
In short: as §1

KRAS G12D = KRAS G12D (Homo sapiens, UniProt P01116, G12D); experiment: KRAS G12D LoEnz Biochemical Assay, BODIPY-GDP Exchange TR-FRET (Example 500); conditions: BODIPY-GDP exchange, read-out: KRas (G12D) GDP HTRF IC50
Method: Example 500: KRAS G12D LoEnz Biochemical Assay, BODIPY-GDP Exchange TR-FRET. Biochemical compound potencies are assessed by evaluating inhibition of SOS1-mediated nucleotide exchange in KRAS G12D. In this assay, the SOS1-promoted exchange of fluorescently-labeled GDP (BOPIDY-GDP) is monitored by time-resolved fluorescence resonance energy transfer (TR-FRET). Compounds solubilized in DMSO are dispensed as concentration series into 384-well white assay plates. A preformed complex of biotin-tagged recombinant human KRAS (0.06 nM mutant G12D) and 0.06 nM terbium-labeled streptavidin (CisBIO) prepared in 10 uL/well assay buffer (20 mM HEPES, pH 7.5, 50 mM NaCl, 10 mM MgCl2, 0.01% Tween-20 and 1 mM dithiothreitol) is added and allowed to incubate for 10-minutes at room temperature. The reaction is initiated with the addition of 5 uL 300 nM recombinant human SOS1 and 300 nM BODIPY-GDP in assay buffer. After a 120-minute incubation, the fluorescence is measured with excitation at 337 nm and emission at 490 and 520 nm. The TR-FRET ratio is determined as the fluorescence at 520 nm divided by the fluorescence at 490 nm multiplied by 10,000. The results are normalized to percent inhibition based on control samples: DMSO (0% inhibition) and control compound at a concentration that inhibits completely (100% inhibition). The normalized TR-FRET results are plotted against compound concentration, and the data are fit to a 4-parameter Hill equation to determine the IC50 values.

[3] = system: AsPC-1 (homozygous mutant KRAS G12D human pancreatic cell line); experiment: KRAS 3D-Cell Proliferation Assay, AsPC-1 (Example 503); assay type: cell-based; conditions: Homo sapiens, ASPC1, 168 h, AsPC-1 3D culture, 7 days, CellTiter-Glo 3D; read-out: Prolif AsPC-1 3D ATP IC50
In short: as §1

[4] = system: H1975 (KRAS wild type human lung adenocarcinoma cell line); experiment: KRAS 3D-Cell Proliferation Assay, H1975 (Example 503); assay type: cell-based; conditions: Homo sapiens, NCI-H1975, 168 h, H1975 3D culture, 7 days, CellTiter-Glo 3D; read-out: Prolif H1975 3D ATP IC50
In short: as §1

KRAS WT [5] = target: T1, KRAS WT (Homo sapiens, UniProt P01116); experiment: KRAS WI Biochemical Assay, BODIPY-GDP Exchange TR-FRET (Example 501; 3 nM KRAS WT, 3 nM SOS1, 60-minute incubation); conditions: SOS1-mediated BODIPY-GDP exchange, read-out: KRas(wt) GDP HTRF IC50
Method: Example 501: KRAS WI Biochemical Assay, BODIPY-GDP Exchange TR-FRET. Biochemical compound potencies are assessed by evaluating inhibition of SOS1-mediated nucleotide exchange in KRAS WT. In this assay, the SOS1-promoted exchange of fluorescently-labeled GDP (BOPIDY-GDP) is monitored by time-resolved fluorescence resonance energy transfer (TR-FRET). Compounds solubilized in DMSO are dispensed as concentration series into 384-well white assay plates, and 5 uL assay buffer (20 mM HEPES, pH 7.5, 50 mM NaCl, 10 mM MgCl2, 0.01% Tween-20 and 1 mM dithiothreitol) is added just prior to the start of the assay. A preformed complex of 3 nM biotin-tagged recombinant human KRAS WT and 0.3 nM terbium-labeled streptavidin (CisBIO) prepared in 5 uL/well assay buffer is added and allowed to incubate for 10-minutes at room temperature. The reaction is initiated with the addition of 5 uL 3 nM recombinant human SOS1 and 300 nM BODIPY-GDP in assay buffer. After a 60-minute incubation, the fluorescence is measured with excitation at 337 nm and emission at 490 and 520 nm. The TR-FRET ratio is determined as the fluorescence at 520 nm divided by the fluorescence at 490 nm multiplied by 10,000. The results are normalized to percent inhibition based on control samples: DMSO (0% inhibition) and control compound at a concentration that inhibits completely (100% inhibition). The normalized TR-FRET results are plotted against compound concentration, and the data are fit to a 4-parameter Hill equation to determine the IC50 values.

KRAS WT [6] = target: T1, KRAS WT; experiment: KRAS WT Biochemical Assay, BODIPY-GDP Exchange TR-FRET (Example 502; 0.06 nM KRAS WT, 15 nM GDP, 300 nM SOS1, 120-minute incubation); conditions: SOS1-mediated BODIPY-GDP exchange, read-out: KRas HTRF IC50
Method: Example 502: KRAS WT Biochemical Assay, BODIPY-GDP Exchange TR-FRET. Biochemical compound potencies are assessed by evaluating inhibition of SOS1-mediated nucleotide exchange in KRAS WT. In this assay, the SOS1-promoted exchange of fluorescently-labeled GDP (BOPIDY-GDP) is monitored by time-resolved fluorescence resonance energy transfer (TR-FRET). Compounds solubilized in DMSO are dispensed as concentration series into 384-well white assay plates. A preformed complex of 0.06 nM biotin-tagged recombinant human KRAS WT, 15 nM GDP and 0.06 nM terbium-labeled streptavidin (CisBIO) prepared in 10 uL/well assay buffer (20 mM HEPES, pH 7.5, 50 mM NaCl, 10 mM MgCl2, 0.01% Tween-20 and 1 mM dithiothreitol) is added and allowed to incubate for 10-minutes at room temperature. The reaction is initiated with the addition of 5 uL 300 nM recombinant human SOS1 and 300 nM BODIPY-GDP in assay buffer. After a 120-minute incubation, the fluorescence is measured with excitation at 337 nm and emission at 490 and 520 nm. The TR-FRET ratio is determined as the fluorescence at 520 nm divided by the fluorescence at 490 nm multiplied by 10,000. The results are normalized to percent inhibition based on control samples: DMSO (0% inhibition) and control compound at a concentration that inhibits completely (100% inhibition). […]

T1 sequence (P01116 1-188 isoform P01116-2): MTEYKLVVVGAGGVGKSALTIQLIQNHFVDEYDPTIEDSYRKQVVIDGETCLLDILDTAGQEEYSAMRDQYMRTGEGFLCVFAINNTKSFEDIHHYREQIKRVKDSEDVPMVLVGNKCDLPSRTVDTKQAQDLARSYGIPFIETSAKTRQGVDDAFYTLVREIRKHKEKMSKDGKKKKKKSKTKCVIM
Chain of KRAS G12D (P01116 1-188 isoform P01116-2 G12D): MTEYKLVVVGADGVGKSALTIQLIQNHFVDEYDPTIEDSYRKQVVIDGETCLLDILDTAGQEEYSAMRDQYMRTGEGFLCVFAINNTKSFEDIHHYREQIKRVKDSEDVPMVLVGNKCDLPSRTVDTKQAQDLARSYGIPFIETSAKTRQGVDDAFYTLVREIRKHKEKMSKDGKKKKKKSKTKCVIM

Structure (SMILES) | IC50 [1] | IC50 [2] | IC50 (KRAS G12D) | IC50 [3] | IC50 [4] | IC50 (KRAS WT [5]) | IC50 (KRAS WT [6])
C[C@@H]1Oc2nc(-c3cc(O)cc4cccc(F)c34)c(F)c3nc(OC[C@@]45CCCN4C[C@H](F)C5)nc(c23)N2C[C@H]3CC[C@H](N3)[C@@H]12 [Compound 9, 5-fluoro-4-((5S,5aS,6S,9R)-1-fluoro-12-(((2R,7aS)-2-fluorotetrahydro-1H-pyrrolizin-7a(5H)-yl)methoxy)-5-methyl-5a,6,7,8,9,10-hexahydro-5H-4-oxa-3,10a,11,13,14-pentaaza-6,9-methanonaphtho[1,8-ab]heptalen-2-yl)naphthalen-2-ol] | 11.6 nM | 7790 nM | 0.057 nM | 19.3 nM | 2020 nM | 6.51 nM | –
C[C@@H]1Oc2nc(-c3cc(N)cc(F)c3C(F)(F)F)c(F)c3nc(OC[C@H]4CC[C@@H]5COC(C)(C)CN45)nc(c23)N2C[C@H]3CC[C@H](N3)[C@@H]12 (relative stereo) [Compound 125, 3-((5S,5aS,6S,9R)-12-((3,3-dimethylhexahydro-1H-pyrrolo[2,1-c][1,4]oxazin-6-yl)methoxy)-1-fluoro-5-methyl-5a,6,7,8,9,10-hexahydro-5H-4-oxa-3,10a,11,13,14-pentaaza-6,9-methanonaphtho[1,8-ab]heptalen-2-yl)-5-fluoro-4-(trifluoromethyl)aniline] | 2.14 nM | – | 0.23 nM | 10.2 nM | 1220 nM | – | 14.7 nM
Cc1c(F)c(N)cc(-c2nc3c4c(nc(OC[C@H]5CC[C@@H]6C(=O)N(C)CCN56)nc4c2F)N2C[C@H]4CC[C@H](N4)[C@H]2[C@H](C)O3)c1C(F)(F)F (relative stereo) [Compound 123, 6-((((5S,5aS,6S,9R)-2-(5-Amino-4-fluoro-3-methyl-2-(trifluoromethyl)phenyl)-1-fluoro-5-methyl-5a,6,7,8,9,10-hexahydro-5H-4-oxa-3,10a,11,13,14-pentaaza-6,9-methanonaphtho[1,8-ab]heptalen-12-yl)oxy)methyl)-2-methylhexahydropyrrolo[1,2-a]pyrazin-1(2H)-one] | 63 nM | – | 0.7 nM | – | 13900 nM | – | 181 nM
